Measured values reported in US20080176261A1, “Colorimetric Substrate and Methods for Detecting Poly(ADP-ribose) Polymerase Activity including PARP Enzymes PARP-1, VPARP, and Tankyrase-1” (THE BOARD OF TRUSTEES OF THE UNIVERSITY OF ILLINOIS, priority 2007, published 2008).
pIC50: −log10 of the molar value.

Assays:
[1] = target: PARP-1 (Homo sapiens, UniProt P09874); experiment: biochemical
Experimental: (§1) For these measurements, concentrations of DPQ ranging from 0.05 nM to 10 μM were added to a 96-well plate containing PARP assay buffer and ADP-ribose-pNP and the absorbance at 405 nm was measured in triplicate.
(§2) Determination of IC50 values for PARP inhibitors. To determine IC50 values of the PARP inhibitors, 22.5 μL of PARP assay buffer containing varying concentrations of DPQ and 20 μg/mL DNase activated DNA (for PARP-1 only) were added into the wells of a 384-well plate. A 22.5 μL volume of PARP at a concentration of 5 μg/mL PARP-1, 40 μg/mL VPARP and 40 μg/mL tankyrase-1 in PARP assay buffer was added. The reaction was initiated by the addition of 5 μL of a 2.5 mM solution of ADP-ribose-pNP in PARP assay buffer, bringing the final concentration to 2.5 μg/mL PARP-1 with 10 μg/mL DNA or 20 μg/mL VPARP or 20 μg/mL tankyrase-1, 250 μM ADP-ribose-pNP with varying concentrations of inhibitors in a total volume of 50 μL. The plate was then read every 2 minutes for 2 hours at 405 nm on a SpectraMax 384 plate reader (Molecular Devices). […]
(§3) Data analysis. Data from the plate reader was imported into Excel where appropriate subtractions were made and the data was plotted. Graphs were analyzed using Table Curve 2D. […]

[2] = target: T1, tankyrase-1 (Homo sapiens, UniProt O95271); experiment: IC50 determination of PARP inhibitor with ADP-ribose-pNP substrate, tankyrase-1; format: biochemical; details: 250 μM ADP-ribose-pNP
T1 construct: The SAM and PARP domain of tankyrase was subcloned into pGEX-5X-1; made in house; host or cells: E. coli Rosetta
T1 sequence (O95271 1030-1327): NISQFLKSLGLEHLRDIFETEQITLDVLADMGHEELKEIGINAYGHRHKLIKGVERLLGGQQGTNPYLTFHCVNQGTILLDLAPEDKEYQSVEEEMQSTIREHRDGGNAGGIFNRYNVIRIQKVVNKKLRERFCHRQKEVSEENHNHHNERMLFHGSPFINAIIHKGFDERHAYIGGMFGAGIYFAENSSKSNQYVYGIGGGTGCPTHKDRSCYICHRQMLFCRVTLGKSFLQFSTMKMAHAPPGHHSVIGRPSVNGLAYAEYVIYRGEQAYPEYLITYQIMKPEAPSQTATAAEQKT
Experimental: as §1, §2, §3

[3] = target: T2, VPARP (Homo sapiens, UniProt Q9UKK3); experiment: IC50 determination of PARP inhibitor with ADP-ribose-pNP substrate, VPARP; format: biochemical; details: 250 μM ADP-ribose-pNP
T2 construct: The plasmid with the catalytic domain of VPARP, pET28b-p193cat; made in house; host or cells: E. coli Rosetta
T2 sequence (Q9UKK3 369-573 limits assumed): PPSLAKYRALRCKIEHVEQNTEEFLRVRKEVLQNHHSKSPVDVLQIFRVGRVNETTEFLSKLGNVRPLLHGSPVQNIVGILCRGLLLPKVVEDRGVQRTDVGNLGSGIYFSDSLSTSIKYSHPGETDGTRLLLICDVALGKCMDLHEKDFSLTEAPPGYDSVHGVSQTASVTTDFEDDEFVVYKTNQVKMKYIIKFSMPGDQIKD
Experimental: as §1, §2, §3

Sequence of PARP-1 (P09874 whole entry): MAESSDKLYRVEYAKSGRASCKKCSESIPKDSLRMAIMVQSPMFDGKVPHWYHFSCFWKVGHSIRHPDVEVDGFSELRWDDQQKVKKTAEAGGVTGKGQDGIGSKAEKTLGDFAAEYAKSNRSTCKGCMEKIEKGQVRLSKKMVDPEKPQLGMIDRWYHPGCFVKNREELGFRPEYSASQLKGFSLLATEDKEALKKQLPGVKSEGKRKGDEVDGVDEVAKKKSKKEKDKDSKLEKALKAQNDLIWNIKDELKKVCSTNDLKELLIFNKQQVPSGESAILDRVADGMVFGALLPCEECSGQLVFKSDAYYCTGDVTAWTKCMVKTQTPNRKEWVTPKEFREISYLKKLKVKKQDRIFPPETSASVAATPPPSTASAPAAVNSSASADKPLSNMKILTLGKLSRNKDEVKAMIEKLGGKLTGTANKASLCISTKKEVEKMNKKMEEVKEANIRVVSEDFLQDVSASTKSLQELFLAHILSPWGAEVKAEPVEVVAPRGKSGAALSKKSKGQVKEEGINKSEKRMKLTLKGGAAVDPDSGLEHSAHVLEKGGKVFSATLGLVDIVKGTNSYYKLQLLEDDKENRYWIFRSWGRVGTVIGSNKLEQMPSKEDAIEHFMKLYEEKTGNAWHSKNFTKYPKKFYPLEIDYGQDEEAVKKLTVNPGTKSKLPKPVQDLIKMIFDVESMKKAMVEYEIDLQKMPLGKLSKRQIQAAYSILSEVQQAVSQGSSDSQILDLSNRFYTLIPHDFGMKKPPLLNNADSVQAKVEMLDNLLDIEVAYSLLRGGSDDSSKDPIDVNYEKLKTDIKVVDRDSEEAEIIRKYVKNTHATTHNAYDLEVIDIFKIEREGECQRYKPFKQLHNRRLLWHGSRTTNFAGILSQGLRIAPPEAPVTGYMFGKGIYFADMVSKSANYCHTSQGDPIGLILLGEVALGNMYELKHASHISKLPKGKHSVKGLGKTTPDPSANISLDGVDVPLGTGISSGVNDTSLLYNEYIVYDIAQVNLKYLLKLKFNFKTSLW

## O=C1NCCc2c(OCCCCN3CCCCC3)cccc21 [DPQ, 3,4-Dihydro-5-[4-(1-piperidinyl)butoxyl]-1 (2H)-isoquinolinone]
[1]
  pIC50: 7.64
[2]
  pIC50: 7.48
[3]
  pIC50: 6.55
